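Assay format: 96-well plates, 48-hour exposure. TGI marks complete inhibition of growth.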
Legend:
Test in all cases: inhibition of tumour cell growth, NCI panel, 48 h
[1] = tested on: SNB-19 CNS
[2] = tested on: RPMI-8226 leukemia
[3] = tested on: MDA-MB-231 breast
[4] = tested on: MCF7 breast
[5] = tested on: NCI/ADR-RES ovarian
[6] = tested on: SK-MEL-28 melanoma
[7] = tested on: HCT-15 colon
[8] = tested on: K-562 leukemia
[9] = tested on: IGROV1 ovarian
[10] = tested on: TK-10 renal
[11] = tested on: OVCAR-8 ovarian
[12] = tested on: HOP-92 NSCLC
[13] = tested on: EKVX NSCLC
[14] = tested on: SK-MEL-2 melanoma
[15] = tested on: RXF 393 renal
[16] = tested on: NCI-H522 lung
[17] = tested on: CAKI-1 renal
[18] = tested on: SNB-75 CNS
[19] = tested on: NCI-H23 lung
[20] = tested on: SK-MEL-5 melanoma
[21] = tested on: MOLT-4 leukemia
[22] = tested on: SR leukemia
[23] = tested on: A549 NSCLC
[24] = tested on: ACHN renal
[25] = tested on: LOX IMVI melanoma
[26] = tested on: MALME-3M melanoma
[27] = tested on: SF-268 CNS
[28] = tested on: SW-620 colon
[29] = tested on: UACC-62 melanoma
[30] = tested on: OVCAR-3 ovarian
[31] = tested on: OVCAR-4 ovarian
[32] = tested on: SN12C renal
[33] = tested on: NCI-H226 lung
[34] = tested on: HCT-116 colon
[35] = tested on: HT29 colon
[36] = tested on: PC-3 prostate
[37] = tested on: U251 CNS
[38] = tested on: CCRF-CEM leukemia
[39] = tested on: UACC-257 melanoma
[40] = tested on: M14 melanoma
[41] = tested on: MDA-MB-435
[42] = tested on: KM12 colon
[43] = tested on: SF-295 CNS
[44] = tested on: UO-31 renal
[45] = tested on: DU-145 prostate
[46] = tested on: COLO 205 colon
[47] = tested on: OVCAR-5 ovarian
[48] = tested on: A498 renal
[49] = tested on: T-47D breast
[50] = tested on: SF-539 CNS
[51] = tested on: NCI-H460 lung
[52] = tested on: HOP-62 NSCLC
[53] = tested on: MDA-N
[54] = tested on: SK-OV-3 ovarian
[55] = tested on: HL-60(TB) leukemia
[56] = tested on: HCC-2998 colon
[57] = tested on: BT-549 breast
[58] = tested on: 786-0 renal
[59] = tested on: HS 578T breast

Measured: TGI

C[C@H](CCC(=O)O)[C@H]1CC[C@H]2[C@@H]3[C@@H](O)C[C@@H]4C[C@H](O)CC[C@]4(C)[C@H]3CC[C@]12C
> 100 µM: all assays above

O=c1[nH]c2cc(Cl)ccc2nc1/C(=N/Nc1ccccc1)C(O)c1ccco1 (configuration not stated)
> 100 µM: all assays above

CCN(CC)c1ncnc2c1ncn2CCNC(CO)(CO)CO
> 100 µM: all assays above
